Data as given in US9944602B2, “Piperidinone herbicides” (E. I. DU PONT DE NEMOURS AND COMPANY, priority 2014, dated 2018).

How the values were obtained:
Format in all cases: in vivo
[1] = tested on: foxtail, giant (giant foxtail, Setaria faberii); experiment: Test A preemergence foxtail, giant; conditions: 0 to 100 scale, 0 no effect, 100 complete control
Description: (§1) Seeds of plant species selected from barnyardgrass (Echinochloa crus-galli), kochia (Kochia scoparia), ragweed (common ragweed, Ambrosia elatior), ryegrass, Italian (Italian ryegrass, Lolium multiflorum), crabgrass, large (large crabgrass, Digitaria sanguinalis), foxtail, giant (giant foxtail, Setaria faberii), morningglory (Ipomoea spp.), pigweed (Amaranthus retroflexus), velvetleaf (Abutilon theophrasti), wheat (Triticum aestivum), and corn (Zea mays) were planted into a blend of loam soil and sand and treated preemergence with a directed soil spray using test chemicals formulated in a non-phytotoxic solvent mixture which included a surfactant.
(§2) At the same time, plants selected from these crop and weed species and also blackgrass (Alopecurus myosuroides), and galium (catchweed bedstraw, Galium aparine) were planted in pots containing the same blend of loam soil and sand and treated with postemergence applications of test chemicals formulated in the same manner. Plants ranged in height from 2 to 10 cm and were in the one- to two-leaf stage for the postemergence treatment. Treated plants and untreated controls were maintained in a greenhouse for approximately 10 d, after which time all treated plants were compared to untreated controls and visually evaluated for injury. Plant response ratings, summarized in Table A, are based on a 0 to 100 scale where 0 is no effect and 100 is complete control. A dash (-) response means no test result.

[2] = tested on: foxtail, giant (giant foxtail, Setaria faberii); experiment: Test A postemergence foxtail, giant; conditions: 0 to 100 scale, 0 is no effect, 100 is complete control
Description: as §1, §2

[3] = tested on: barnyardgrass (Echinochloa crus-galli); experiment: Test A postemergence barnyardgrass; conditions: 0 to 100 scale, 0 is no effect, 100 is complete control
Description: as §1, §2

[4] = tested on: ragweed (common ragweed, Ambrosia elatior); experiment: Test A postemergence ragweed; conditions: 0 to 100 scale, 0 is no effect, 100 is complete control
Description: as §1, §2

[5] = tested on: barnyardgrass (Echinochloa crus-galli); experiment: Test A preemergence barnyardgrass; conditions: 0 to 100 scale, 0 no effect, 100 complete control
Description: as §1, §2

[6] = tested on: blackgrass (Alopecurus myosuroides); experiment: Test A postemergence blackgrass; conditions: 0 to 100 scale, 0 is no effect, 100 is complete control
Description: as §1, §2

corn (Zea mays) = experiment: Test A postemergence corn; conditions: 0 to 100 scale, 0 is no effect, 100 is complete control
Description: as §1, §2

[7] = tested on: ryegrass, Italian (Italian ryegrass, Lolium multiflorum); experiment: Test A preemergence ryegrass, Italian; conditions: 0 to 100 scale, 0 no effect, 100 complete control
Description: as §1, §2

[8] = tested on: sedge, umbrella (small-flower umbrella sedge, Cyperus difformis); experiment: Test B flooded paddy test sedge, umbrella; conditions: Table B, Flood, scale 0 to 100
Method: (§3) Plant species in the flooded paddy test selected from rice (Oryza sativa), sedge, umbrella (small-flower umbrella sedge, Cyperus difformis), ducksalad (Heteranthera limosa), and barnyardgrass (Echinochloa crus-galli) were grown to the 2-leaf stage for testing. At the time of treatment, test pots were flooded to 3 cm above the soil surface, treated by application of test compounds directly to the paddy water, and then maintained at that water depth for the duration of the test. Treated plants and controls were maintained in a greenhouse for 13 to 15 d, after which time all species were compared to controls and visually evaluated. […] A dash (-) response means no test result.

kochia (Kochia scoparia) [9] = experiment: Test A postemergence kochia; conditions: 0 to 100 scale, 0 is no effect, 100 is complete control
Description: as §1, §2

rice (Oryza sativa) = experiment: Test B flooded paddy test rice; conditions: Table B, Flood, scale 0 to 100
Method: as §3

[10] = tested on: barnyardgrass (Echinochloa crus-galli); experiment: Test B flooded paddy test barnyardgrass; conditions: Table B, Flood, scale 0 to 100
Method: as §3

[11] = tested on: galium (catchweed bedstraw, Galium aparine); experiment: Test A postemergence galium; conditions: 0 to 100 scale, 0 is no effect, 100 is complete control
Description: as §1, §2

kochia (Kochia scoparia) [12] = experiment: Test A preemergence kochia; conditions: 0 to 100 scale, 0 no effect, 100 complete control
Description: as §1, §2

[13] = tested on: pigweed (Amaranthus retroflexus); experiment: Test A preemergence pigweed; conditions: 0 to 100 scale, 0 no effect, 100 complete control
Description: as §1, §2

[14] = tested on: ragweed (common ragweed, Ambrosia elatior); experiment: Test A preemergence ragweed; conditions: 0 to 100 scale, 0 no effect, 100 complete control
Description: as §1, §2

[15] = tested on: wheat (Triticum aestivum); experiment: Test A postemergence wheat; conditions: 0 to 100 scale, 0 is no effect, 100 is complete control
Description: as §1, §2

[16] = tested on: ducksalad (Heteranthera limosa); experiment: Test B flooded paddy test ducksalad; conditions: Table B, Flood, scale 0 to 100
Method: as §3

[17] = tested on: pigweed (Amaranthus retroflexus); experiment: Test A postemergence pigweed; conditions: 0 to 100 scale, 0 is no effect, 100 is complete control
Description: as §1, §2

[18] = tested on: ryegrass, Italian (Italian ryegrass, Lolium multiflorum); experiment: Test A postemergence ryegrass, Italian; conditions: 0 to 100 scale, 0 is no effect, 100 is complete control
Description: as §1, §2

SMILES | Foxtail, Giant plant response rating ([1]; 125 g ai/ha) | Foxtail, Giant plant response rating ([1]; 500 g ai/ha) | Plant response rating, Foxtail, Giant ([2]; 125 g ai/ha) | Plant response rating, Foxtail, Giant ([2]; 500 g ai/ha) | Plant response rating, Barnyardgrass ([3]; 125 g ai/ha) | Plant response rating, Barnyardgrass ([3]; 500 g ai/ha) | Plant response rating, Ragweed ([4]; 125 g ai/ha) | Plant response rating, Ragweed ([4]; 500 g ai/ha) | Barnyardgrass plant response rating ([5]; 125 g ai/ha) | Barnyardgrass plant response rating ([5]; 500 g ai/ha) | Plant response rating, Blackgrass ([6]; 125 g ai/ha) | Plant response rating, Blackgrass ([6]; 500 g ai/ha) | Plant response rating, Corn (corn (Zea mays); 125 g ai/ha) | Plant response rating, Corn (corn (Zea mays); 500 g ai/ha) | Ryegrass, Italian plant response rating ([7]; 125 g ai/ha) | Ryegrass, Italian plant response rating ([7]; 500 g ai/ha) | Plant response rating, Kochia (kochia (Kochia scoparia) [9]; 125 g ai/ha) | Plant response rating, Kochia (kochia (Kochia scoparia) [9]; 500 g ai/ha) | Plant response rating, Galium ([11]; 125 g ai/ha) | Plant response rating, Galium ([11]; 500 g ai/ha) | other results
O=C1NCCC(c2cccc(OC(F)(F)F)c2)C1C(=O)Nc1ccccc1C(F)(F)F (racemic) [Compound 38] | 50 | 80 | 0 | 60 | 50 | 70 | 0 | 0 | 30 | 80 | 0 | 0 | 0 | 0 | 0 | 0 | 0 | 0 | 0 | 0 | Plant response rating ([8]; 250 g ai/ha): 0; Plant response rating (rice (Oryza sativa); 250 g ai/ha): 0; Plant response rating ([10]; 250 g ai/ha): 35; Kochia plant response rating (kochia (Kochia scoparia) [12]; 125 g ai/ha): 0; Kochia plant response rating (kochia (Kochia scoparia) [12]; 500 g ai/ha): 0; Pigweed plant response rating ([13]; 125 g ai/ha): 0; Pigweed plant response rating ([13]; 500 g ai/ha): 0; Ragweed plant response rating ([14]; 125 g ai/ha): 0; Ragweed plant response rating ([14]; 500 g ai/ha): 0; Plant response rating, Wheat ([15]; 125 g ai/ha): 0; Plant response rating, Wheat ([15]; 500 g ai/ha): 0; Plant response rating ([16]; 250 g ai/ha): 85; Plant response rating, Pigweed ([17]; 125 g ai/ha): 0; Plant response rating, Pigweed ([17]; 500 g ai/ha): 0; Plant response rating, Ryegrass, Italian ([18]; 125 g ai/ha): 0; Plant response rating, Ryegrass, Italian ([18]; 500 g ai/ha): 0
O=C1NCCC(c2cccc(OC(F)(F)F)c2)C1C(=O)Nc1cccc(F)c1F (racemic) [Compound 39] | 90 | 90 | 70 | 90 | 80 | 80 | 0 | 0 | 80 | 90 | 0 | 60 | 0 | 50 | 30 | 70 | 0 | 0 | 0 | 0 | Plant response rating ([8]; 250 g ai/ha): 0; Plant response rating (rice (Oryza sativa); 250 g ai/ha): 0; Plant response rating ([10]; 250 g ai/ha): 65; Kochia plant response rating (kochia (Kochia scoparia) [12]; 125 g ai/ha): 0; Kochia plant response rating (kochia (Kochia scoparia) [12]; 500 g ai/ha): 0; Pigweed plant response rating ([13]; 125 g ai/ha): 0; Pigweed plant response rating ([13]; 500 g ai/ha): 10; Ragweed plant response rating ([14]; 125 g ai/ha): 0; Ragweed plant response rating ([14]; 500 g ai/ha): 0; Plant response rating, Wheat ([15]; 125 g ai/ha): 0; Plant response rating, Wheat ([15]; 500 g ai/ha): 30; Plant response rating ([16]; 250 g ai/ha): 100; Plant response rating, Pigweed ([17]; 125 g ai/ha): 0; Plant response rating, Pigweed ([17]; 500 g ai/ha): 0; Plant response rating, Ryegrass, Italian ([18]; 125 g ai/ha): 0; Plant response rating, Ryegrass, Italian ([18]; 500 g ai/ha): 50
O=C1NCCC(c2cccc(OC(F)F)c2)C1C(=O)Nc1ccc(F)c(F)c1F (racemic) [Compound 44] | 80 | 90 | 30 | 80 | 20 | 80 | 0 | 0 | 60 | 90 | 0 | 20 | 0 | 0 | 0 | 0 | 0 | 0 | 0 | 20 | Plant response rating ([8]; 500 g ai/ha): 0; Plant response rating (rice (Oryza sativa); 500 g ai/ha): 0; Plant response rating ([10]; 500 g ai/ha): 60; Kochia plant response rating (kochia (Kochia scoparia) [12]; 125 g ai/ha): 0; Kochia plant response rating (kochia (Kochia scoparia) [12]; 500 g ai/ha): 0; Pigweed plant response rating ([13]; 125 g ai/ha): 0; Pigweed plant response rating ([13]; 500 g ai/ha): 0; Ragweed plant response rating ([14]; 125 g ai/ha): 0; Ragweed plant response rating ([14]; 500 g ai/ha): 30; Plant response rating, Wheat ([15]; 125 g ai/ha): 0; Plant response rating, Wheat ([15]; 500 g ai/ha): 0; Plant response rating ([16]; 500 g ai/ha): 85; Plant response rating, Pigweed ([17]; 125 g ai/ha): 0; Plant response rating, Pigweed ([17]; 500 g ai/ha): 0; Plant response rating, Ryegrass, Italian ([18]; 125 g ai/ha): 0; Plant response rating, Ryegrass, Italian ([18]; 500 g ai/ha): 20
O=C1NCCC(c2cccc(OC(F)F)c2)C1C(=O)Nc1ccccc1F (racemic) [Compound 45] | 40 | 80 | 0 | 50 | 0 | 60 | 0 | 0 | 20 | 70 | 0 | 20 | 0 | 0 | 0 | 0 | 0 | 0 | 0 | 0 | Plant response rating ([8]; 500 g ai/ha): 0; Plant response rating (rice (Oryza sativa); 500 g ai/ha): 0; Plant response rating ([10]; 500 g ai/ha): 0; Kochia plant response rating (kochia (Kochia scoparia) [12]; 125 g ai/ha): 0; Kochia plant response rating (kochia (Kochia scoparia) [12]; 500 g ai/ha): 0; Pigweed plant response rating ([13]; 125 g ai/ha): 0; Pigweed plant response rating ([13]; 500 g ai/ha): 0; Ragweed plant response rating ([14]; 125 g ai/ha): 0; Ragweed plant response rating ([14]; 500 g ai/ha): 0; Plant response rating, Wheat ([15]; 125 g ai/ha): 0; Plant response rating, Wheat ([15]; 500 g ai/ha): 0; Plant response rating ([16]; 500 g ai/ha): 50; Plant response rating, Pigweed ([17]; 125 g ai/ha): 0; Plant response rating, Pigweed ([17]; 500 g ai/ha): 0; Plant response rating, Ryegrass, Italian ([18]; 125 g ai/ha): 0; Plant response rating, Ryegrass, Italian ([18]; 500 g ai/ha): 0
O=C1NCCC(c2cccc(OC(F)F)c2)C1C(=O)Nc1cccc(F)c1F (racemic) [Compound 46] | 90 | 90 | 20 | 80 | 60 | 90 | 0 | 0 | 50 | 90 | 0 | 40 | 0 | 50 | 0 | 20 | 0 | 0 | 0 | 0 | Plant response rating ([8]; 500 g ai/ha): 0; Plant response rating (rice (Oryza sativa); 500 g ai/ha): 0; Plant response rating ([10]; 500 g ai/ha): 65; Kochia plant response rating (kochia (Kochia scoparia) [12]; 125 g ai/ha): 0; Kochia plant response rating (kochia (Kochia scoparia) [12]; 500 g ai/ha): 0; Pigweed plant response rating ([13]; 125 g ai/ha): 0; Pigweed plant response rating ([13]; 500 g ai/ha): 0; Ragweed plant response rating ([14]; 125 g ai/ha): 0; Ragweed plant response rating ([14]; 500 g ai/ha): 0; Plant response rating, Wheat ([15]; 125 g ai/ha): 0; Plant response rating, Wheat ([15]; 500 g ai/ha): 50; Plant response rating ([16]; 500 g ai/ha): 100; Plant response rating, Pigweed ([17]; 125 g ai/ha): 0; Plant response rating, Pigweed ([17]; 500 g ai/ha): 0; Plant response rating, Ryegrass, Italian ([18]; 125 g ai/ha): 0; Plant response rating, Ryegrass, Italian ([18]; 500 g ai/ha): 0
